Assays:
Assay in all cases: Z'-LYTE kinase panel
Assay type in all cases: biochemical
SRPK2 = molecular target: T1, SRPK2 (Homo sapiens, UniProt P78362)
T1 construct: purchased ThermoFisher (SelectScreen, Z'-LYTE)
In short: (§1)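 Z′-LYTE, standard conditions; 10 µM test compound; values = % inhibition; broad panel of 225 kinases.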

CDK5/p25 = molecular target: T2, CDK5/p25 (Homo sapiens, UniProt Q00535)
T2 construct: purchased ThermoFisher (SelectScreen, Z'-LYTE)
In short: as §1

MAPK12 (p38 gamma) = molecular target: T3, MAPK12 (p38 gamma) (Homo sapiens, UniProt P53778)
T3 construct: purchased ThermoFisher (SelectScreen, Z'-LYTE)
T3 sequence (P53778 1-367): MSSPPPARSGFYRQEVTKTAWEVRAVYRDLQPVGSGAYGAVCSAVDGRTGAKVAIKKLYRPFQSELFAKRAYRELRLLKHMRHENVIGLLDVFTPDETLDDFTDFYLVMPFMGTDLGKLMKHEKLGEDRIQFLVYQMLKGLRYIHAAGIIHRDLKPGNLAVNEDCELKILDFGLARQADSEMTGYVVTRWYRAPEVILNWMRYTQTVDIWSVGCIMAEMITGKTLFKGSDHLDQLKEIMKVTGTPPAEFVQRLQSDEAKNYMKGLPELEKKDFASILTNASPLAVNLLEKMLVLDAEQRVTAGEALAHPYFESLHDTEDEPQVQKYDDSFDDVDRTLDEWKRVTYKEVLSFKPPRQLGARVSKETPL
In short: as §1

PRKCD (PKC delta) = molecular target: T4, PRKCD (PKC delta) (Homo sapiens, UniProt Q05655)
T4 construct: purchased ThermoFisher (SelectScreen, Z'-LYTE)
In short: as §1

AMPK A1/B1/G1 = molecular target: T5, AMPK A1/B1/G1 (Homo sapiens, UniProt Q13131)
T5 construct: purchased ThermoFisher (SelectScreen, Z'-LYTE)
In short: as §1

TEK (Tie2) = molecular target: T6, TEK (Tie2) (Homo sapiens, UniProt Q02763)
T6 construct: purchased ThermoFisher (SelectScreen, Z'-LYTE)
In short: as §1

MAP4K2 (GCK) = molecular target: T7, MAP4K2 (GCK) (Homo sapiens, UniProt Q12851)
T7 construct: purchased ThermoFisher (SelectScreen, Z'-LYTE)
T7 sequence (Q12851 1-820): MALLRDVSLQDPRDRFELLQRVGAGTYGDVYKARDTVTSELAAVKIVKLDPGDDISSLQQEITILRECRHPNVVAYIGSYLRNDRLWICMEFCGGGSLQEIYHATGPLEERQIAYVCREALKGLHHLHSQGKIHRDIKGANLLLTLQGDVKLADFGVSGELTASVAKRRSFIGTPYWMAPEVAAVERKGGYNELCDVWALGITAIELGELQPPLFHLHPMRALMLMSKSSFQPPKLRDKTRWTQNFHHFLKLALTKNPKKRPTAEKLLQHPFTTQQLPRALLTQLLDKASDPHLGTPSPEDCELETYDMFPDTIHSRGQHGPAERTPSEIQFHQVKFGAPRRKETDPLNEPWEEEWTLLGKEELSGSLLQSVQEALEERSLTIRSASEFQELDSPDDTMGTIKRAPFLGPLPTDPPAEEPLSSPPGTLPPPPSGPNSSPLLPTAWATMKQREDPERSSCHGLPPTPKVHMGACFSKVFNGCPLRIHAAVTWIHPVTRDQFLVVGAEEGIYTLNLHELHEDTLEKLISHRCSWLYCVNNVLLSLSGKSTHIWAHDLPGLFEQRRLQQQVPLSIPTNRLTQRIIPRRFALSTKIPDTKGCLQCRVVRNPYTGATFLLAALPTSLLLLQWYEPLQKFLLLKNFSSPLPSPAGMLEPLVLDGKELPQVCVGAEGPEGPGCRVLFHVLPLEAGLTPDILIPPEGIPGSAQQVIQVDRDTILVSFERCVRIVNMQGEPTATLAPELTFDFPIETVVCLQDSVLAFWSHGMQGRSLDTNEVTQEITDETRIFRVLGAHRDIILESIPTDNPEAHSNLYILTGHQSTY
In short: as §1

CAMK2D (CaMKII delta) = molecular target: T8, CAMK2D (CaMKII delta) (Homo sapiens, UniProt Q13557)
T8 construct: purchased ThermoFisher (SelectScreen, Z'-LYTE)
In short: as §1

MAPK11 (p38 beta) = molecular target: T9, MAPK11 (p38 beta) (Homo sapiens, UniProt Q15759)
T9 construct: purchased ThermoFisher (SelectScreen, Z'-LYTE)
In short: as §1

MARK3 = molecular target: T10, MARK3 (Homo sapiens, UniProt P27448)
T10 construct: purchased ThermoFisher (SelectScreen, Z'-LYTE)
In short: as §1

RPS6KA1 (RSK1) = molecular target: T11, RPS6KA1 (RSK1) (Homo sapiens, UniProt Q15418)
T11 construct: purchased ThermoFisher (SelectScreen, Z'-LYTE)
In short: as §1

STK25 (YSK1) = molecular target: T12, STK25 (YSK1) (Homo sapiens, UniProt O00506)
T12 construct: purchased ThermoFisher (SelectScreen, Z'-LYTE)
In short: as §1

MUSK = molecular target: T13, MUSK (Homo sapiens, UniProt O15146)
T13 construct: purchased ThermoFisher (SelectScreen, Z'-LYTE)
T13 sequence (O15146 24-869): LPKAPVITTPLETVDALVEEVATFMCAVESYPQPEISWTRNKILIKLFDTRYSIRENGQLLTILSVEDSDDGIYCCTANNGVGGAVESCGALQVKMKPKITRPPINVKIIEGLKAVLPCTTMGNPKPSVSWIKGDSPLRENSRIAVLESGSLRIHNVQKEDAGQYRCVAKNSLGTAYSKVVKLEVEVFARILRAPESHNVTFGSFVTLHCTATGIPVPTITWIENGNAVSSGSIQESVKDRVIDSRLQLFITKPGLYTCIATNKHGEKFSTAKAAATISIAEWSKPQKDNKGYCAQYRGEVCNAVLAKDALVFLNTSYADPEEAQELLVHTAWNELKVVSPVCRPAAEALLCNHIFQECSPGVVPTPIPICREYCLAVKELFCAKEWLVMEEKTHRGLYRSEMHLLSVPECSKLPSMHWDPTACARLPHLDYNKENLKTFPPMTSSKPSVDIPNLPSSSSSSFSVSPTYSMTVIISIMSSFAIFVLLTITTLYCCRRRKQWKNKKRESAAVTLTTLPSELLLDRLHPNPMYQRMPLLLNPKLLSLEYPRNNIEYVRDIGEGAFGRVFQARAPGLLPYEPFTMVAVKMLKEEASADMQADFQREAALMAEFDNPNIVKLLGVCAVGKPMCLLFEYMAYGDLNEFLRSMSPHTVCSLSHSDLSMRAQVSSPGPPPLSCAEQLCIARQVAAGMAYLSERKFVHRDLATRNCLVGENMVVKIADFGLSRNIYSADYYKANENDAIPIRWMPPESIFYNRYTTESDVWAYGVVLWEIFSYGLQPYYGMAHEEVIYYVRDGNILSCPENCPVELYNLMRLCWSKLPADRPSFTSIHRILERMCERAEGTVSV
In short: as §1

PAK7 (KIAA1264) = molecular target: T14, PAK7 (KIAA1264) (Homo sapiens, UniProt Q9P286)
T14 construct: purchased ThermoFisher (SelectScreen, Z'-LYTE)
In short: as §1

PDGFRA (PDGFR alpha) = molecular target: T15, PDGFRA (PDGFR alpha) (Homo sapiens, UniProt P16234)
T15 construct: purchased ThermoFisher (SelectScreen, Z'-LYTE)
In short: as §1

T15 sequence (P16234 24-1089): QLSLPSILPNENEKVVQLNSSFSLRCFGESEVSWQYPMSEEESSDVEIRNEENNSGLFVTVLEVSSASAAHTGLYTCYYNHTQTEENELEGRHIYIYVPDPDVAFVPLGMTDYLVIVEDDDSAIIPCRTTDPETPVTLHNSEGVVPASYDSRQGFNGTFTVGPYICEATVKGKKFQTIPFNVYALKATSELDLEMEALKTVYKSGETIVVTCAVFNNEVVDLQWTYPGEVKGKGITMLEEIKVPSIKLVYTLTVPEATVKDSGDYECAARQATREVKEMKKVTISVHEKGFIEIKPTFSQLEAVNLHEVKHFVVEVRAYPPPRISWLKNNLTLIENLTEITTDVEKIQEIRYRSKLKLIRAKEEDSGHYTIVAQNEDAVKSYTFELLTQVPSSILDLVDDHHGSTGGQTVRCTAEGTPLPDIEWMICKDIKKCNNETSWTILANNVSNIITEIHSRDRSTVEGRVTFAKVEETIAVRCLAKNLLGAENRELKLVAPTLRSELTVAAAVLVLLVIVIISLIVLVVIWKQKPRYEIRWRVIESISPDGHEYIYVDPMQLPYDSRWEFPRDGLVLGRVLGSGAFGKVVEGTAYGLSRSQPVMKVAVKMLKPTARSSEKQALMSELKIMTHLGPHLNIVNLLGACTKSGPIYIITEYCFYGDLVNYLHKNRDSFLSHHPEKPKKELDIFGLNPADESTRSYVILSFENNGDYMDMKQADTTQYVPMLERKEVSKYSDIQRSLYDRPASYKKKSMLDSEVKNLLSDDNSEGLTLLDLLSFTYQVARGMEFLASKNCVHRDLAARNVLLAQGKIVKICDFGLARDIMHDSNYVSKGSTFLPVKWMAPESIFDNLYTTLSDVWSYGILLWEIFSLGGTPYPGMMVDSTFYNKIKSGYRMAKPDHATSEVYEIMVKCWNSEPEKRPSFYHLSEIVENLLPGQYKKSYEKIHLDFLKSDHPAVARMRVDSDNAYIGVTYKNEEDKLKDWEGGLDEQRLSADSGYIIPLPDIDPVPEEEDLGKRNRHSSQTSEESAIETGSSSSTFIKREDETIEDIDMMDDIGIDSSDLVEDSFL
T10 sequence (P27448 whole entry): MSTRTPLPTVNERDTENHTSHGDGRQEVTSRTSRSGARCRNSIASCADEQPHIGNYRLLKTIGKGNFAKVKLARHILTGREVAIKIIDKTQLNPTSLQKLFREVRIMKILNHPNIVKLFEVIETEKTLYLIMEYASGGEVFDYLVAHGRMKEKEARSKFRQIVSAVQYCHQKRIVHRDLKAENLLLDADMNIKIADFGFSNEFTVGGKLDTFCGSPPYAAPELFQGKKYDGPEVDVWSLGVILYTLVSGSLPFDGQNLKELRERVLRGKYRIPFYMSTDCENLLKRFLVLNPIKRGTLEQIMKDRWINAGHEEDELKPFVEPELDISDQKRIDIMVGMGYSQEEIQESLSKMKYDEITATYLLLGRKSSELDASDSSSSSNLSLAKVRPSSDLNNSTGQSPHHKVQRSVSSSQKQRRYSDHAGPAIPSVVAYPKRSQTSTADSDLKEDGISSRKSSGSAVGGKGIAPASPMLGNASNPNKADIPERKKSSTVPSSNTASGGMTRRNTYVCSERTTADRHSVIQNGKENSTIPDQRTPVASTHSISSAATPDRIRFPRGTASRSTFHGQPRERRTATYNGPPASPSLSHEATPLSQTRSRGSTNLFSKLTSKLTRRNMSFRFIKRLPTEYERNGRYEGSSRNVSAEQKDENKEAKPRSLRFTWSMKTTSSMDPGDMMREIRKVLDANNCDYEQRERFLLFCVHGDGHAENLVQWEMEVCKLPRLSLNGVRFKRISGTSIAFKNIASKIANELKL
T14 sequence (Q9P286 whole entry): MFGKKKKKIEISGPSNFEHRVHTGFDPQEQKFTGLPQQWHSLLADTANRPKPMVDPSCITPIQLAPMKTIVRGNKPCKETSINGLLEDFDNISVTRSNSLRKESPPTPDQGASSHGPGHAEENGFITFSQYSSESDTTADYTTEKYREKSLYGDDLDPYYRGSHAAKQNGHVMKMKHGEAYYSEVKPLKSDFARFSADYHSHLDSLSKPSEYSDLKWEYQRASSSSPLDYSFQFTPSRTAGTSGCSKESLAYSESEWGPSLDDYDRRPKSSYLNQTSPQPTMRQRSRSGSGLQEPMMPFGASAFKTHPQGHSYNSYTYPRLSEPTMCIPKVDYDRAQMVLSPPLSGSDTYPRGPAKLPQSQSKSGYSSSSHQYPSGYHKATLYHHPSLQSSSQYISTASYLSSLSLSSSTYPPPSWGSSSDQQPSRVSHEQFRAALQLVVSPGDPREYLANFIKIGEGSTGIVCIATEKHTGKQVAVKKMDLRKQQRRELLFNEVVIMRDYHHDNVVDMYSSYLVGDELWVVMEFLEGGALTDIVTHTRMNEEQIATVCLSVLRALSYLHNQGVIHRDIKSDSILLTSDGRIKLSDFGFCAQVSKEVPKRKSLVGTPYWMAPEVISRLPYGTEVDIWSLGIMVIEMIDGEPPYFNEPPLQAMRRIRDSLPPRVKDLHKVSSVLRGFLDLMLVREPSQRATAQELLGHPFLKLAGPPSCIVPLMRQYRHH
T6 sequence (Q02763 23-1124): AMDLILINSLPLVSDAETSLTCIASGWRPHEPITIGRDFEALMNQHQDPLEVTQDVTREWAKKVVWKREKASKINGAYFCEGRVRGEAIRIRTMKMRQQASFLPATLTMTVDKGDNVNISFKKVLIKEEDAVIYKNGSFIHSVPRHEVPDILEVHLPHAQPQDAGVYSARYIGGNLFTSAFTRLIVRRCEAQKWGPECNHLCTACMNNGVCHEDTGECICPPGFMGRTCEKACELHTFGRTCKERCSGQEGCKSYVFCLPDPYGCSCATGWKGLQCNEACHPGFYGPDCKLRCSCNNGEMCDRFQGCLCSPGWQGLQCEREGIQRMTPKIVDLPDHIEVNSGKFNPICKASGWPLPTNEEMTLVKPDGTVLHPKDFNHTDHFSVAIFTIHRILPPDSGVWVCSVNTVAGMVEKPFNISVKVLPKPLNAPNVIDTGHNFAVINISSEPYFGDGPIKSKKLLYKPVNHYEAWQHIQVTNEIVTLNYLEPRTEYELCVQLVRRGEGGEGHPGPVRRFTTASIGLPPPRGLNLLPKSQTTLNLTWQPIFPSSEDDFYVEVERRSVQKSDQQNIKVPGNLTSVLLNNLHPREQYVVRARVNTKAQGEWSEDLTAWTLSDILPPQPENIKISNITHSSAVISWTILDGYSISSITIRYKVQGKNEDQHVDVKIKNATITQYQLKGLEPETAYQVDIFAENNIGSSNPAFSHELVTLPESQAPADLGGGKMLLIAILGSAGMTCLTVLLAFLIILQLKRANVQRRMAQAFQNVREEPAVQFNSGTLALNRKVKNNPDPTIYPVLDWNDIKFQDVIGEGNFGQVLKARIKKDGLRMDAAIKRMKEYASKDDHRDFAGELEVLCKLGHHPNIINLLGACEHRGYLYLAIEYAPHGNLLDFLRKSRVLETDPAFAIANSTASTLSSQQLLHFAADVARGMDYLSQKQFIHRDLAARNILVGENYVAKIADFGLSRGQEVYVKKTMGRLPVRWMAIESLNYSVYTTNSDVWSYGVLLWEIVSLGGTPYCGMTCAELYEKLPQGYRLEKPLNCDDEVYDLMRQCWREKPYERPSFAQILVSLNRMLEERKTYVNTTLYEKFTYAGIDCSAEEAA
T12 sequence (O00506 whole entry): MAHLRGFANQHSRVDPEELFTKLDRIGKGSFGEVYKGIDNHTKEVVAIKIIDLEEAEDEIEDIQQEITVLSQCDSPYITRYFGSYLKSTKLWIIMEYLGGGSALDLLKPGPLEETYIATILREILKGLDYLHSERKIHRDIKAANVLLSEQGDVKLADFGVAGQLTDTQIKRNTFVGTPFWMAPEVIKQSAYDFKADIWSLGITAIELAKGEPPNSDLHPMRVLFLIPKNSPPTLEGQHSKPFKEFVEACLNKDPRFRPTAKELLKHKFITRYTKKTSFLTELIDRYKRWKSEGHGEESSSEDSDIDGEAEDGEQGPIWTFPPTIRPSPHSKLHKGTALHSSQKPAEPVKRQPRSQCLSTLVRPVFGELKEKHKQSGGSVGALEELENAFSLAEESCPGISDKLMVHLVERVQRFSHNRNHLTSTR
T1 sequence (P78362 whole entry): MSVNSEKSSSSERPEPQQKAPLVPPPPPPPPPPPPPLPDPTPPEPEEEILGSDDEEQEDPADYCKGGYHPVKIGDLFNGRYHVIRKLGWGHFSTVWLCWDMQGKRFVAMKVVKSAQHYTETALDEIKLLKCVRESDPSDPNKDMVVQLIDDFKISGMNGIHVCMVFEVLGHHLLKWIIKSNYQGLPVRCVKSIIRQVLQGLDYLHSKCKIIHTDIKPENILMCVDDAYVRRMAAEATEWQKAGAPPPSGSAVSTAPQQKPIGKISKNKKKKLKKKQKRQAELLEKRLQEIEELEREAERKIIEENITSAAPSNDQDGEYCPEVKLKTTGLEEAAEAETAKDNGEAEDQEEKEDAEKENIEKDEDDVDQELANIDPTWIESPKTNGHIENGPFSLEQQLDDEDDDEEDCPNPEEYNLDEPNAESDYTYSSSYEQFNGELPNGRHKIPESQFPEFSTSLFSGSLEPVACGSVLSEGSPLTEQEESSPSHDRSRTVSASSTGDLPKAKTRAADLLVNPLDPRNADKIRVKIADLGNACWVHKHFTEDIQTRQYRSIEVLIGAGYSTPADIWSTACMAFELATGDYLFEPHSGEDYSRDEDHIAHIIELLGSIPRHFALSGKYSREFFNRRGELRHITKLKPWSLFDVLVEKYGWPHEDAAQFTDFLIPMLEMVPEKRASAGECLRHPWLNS

Row | Compound | inhibition at 10 µM (SRPK2) | inhibition at 10 µM (CDK5/p25) | inhibition at 10 µM (MAPK12 (p38 gamma)) | inhibition at 10 µM (PRKCD (PKC delta)) | inhibition at 10 µM (AMPK A1/B1/G1) | inhibition at 10 µM (TEK (Tie2)) | inhibition at 10 µM (MAP4K2 (GCK)) | inhibition at 10 µM (CAMK2D (CaMKII delta)) | inhibition at 10 µM (MAPK11 (p38 beta)) | inhibition at 10 µM (MARK3) | inhibition at 10 µM (RPS6KA1 (RSK1)) | inhibition at 10 µM (STK25 (YSK1)) | inhibition at 10 µM (MUSK) | inhibition at 10 µM (PAK7 (KIAA1264)) | inhibition at 10 µM (PDGFRA (PDGFR alpha)) | also measured
1 | Cc1ncc(-c2nc(Nc3ccc(C(=O)NCCN4CCCCC4)cc3)ncc2F)n1C(C)C [Compound 3] | 25% | 99% | 46% | 97% | 95% | 73% | 77% | 88% | 22% | 84% | 69% | 72% | 92% | 71% | 62% | 
2 | Cc1cc(Nc2nc(N)nn2C(=O)NC(C)C)ccc1Cl [Compound 5] | -5% | 77% | 1.08% | 1.15% | 23% | 40% | 50% | -2.38% | 4.21% | 25% | 36% | 12% | 22% | 26% | 22% | 
3 | XMD8-92 [Compound 2, reference compound] |  |  |  |  |  |  |  |  |  |  |  |  |  |  |  | SRPK2 % Inhibition (SRPK2; 10 µM compound, ATP Km app): -19%; CDK5/p25 % Inhibition (CDK5/p25; 10 µM compound, ATP Km app): 38%; MAPK12 (p38 gamma) % Inhibition (MAPK12 (p38 gamma); 10 µM compound, ATP Km app): 3.54%; PRKCD (PKC delta) % Inhibition (PRKCD (PKC delta); 10 µM compound, ATP Km app): -3.55%; AMPK A1/B1/G1 % Inhibition (AMPK A1/B1/G1; 10 µM compound, ATP Km app): 55%; TEK (Tie2) % Inhibition (TEK (Tie2); 10 µM compound, ATP Km app): 6.54%; MAP4K2 (GCK) % Inhibition (MAP4K2 (GCK); 10 µM compound, ATP Km app): 46%; CAMK2D (CaMKII delta) % Inhibition (CAMK2D (CaMKII delta); 10 µM compound, ATP Km app): 63%; MAPK11 (p38 beta) % Inhibition (MAPK11 (p38 beta); 10 µM compound, ATP Km app): 10%; MARK3 % Inhibition (MARK3; 10 µM compound, ATP Km app): 28%; RPS6KA1 (RSK1) % Inhibition (RPS6KA1 (RSK1); 10 µM compound, ATP Km app): 5.45%; STK25 (YSK1) % Inhibition (STK25 (YSK1); 10 µM compound, ATP Km app): 9.49%; MUSK % Inhibition (MUSK; 10 µM compound, ATP Km app): 21%; PAK7 (KIAA1264) % Inhibition (PAK7 (KIAA1264); 10 µM compound, ATP Km app): 6%; PDGFRA (PDGFR alpha) % Inhibition (PDGFRA (PDGFR alpha); 10 µM compound, ATP Km app): 8%

Source: publication PMC4854315, “Discovery of a novel allosteric inhibitor-binding site in ERK5: comparison with the canonical kinase hinge ATP-binding site” (Acta Crystallographica. Section D, Structural Biology, 2016)
